Data set [1] has as its system HFD C57/BL6 mice. Description: Fasting glycemia after 4 weeks of oral treatment in high fat diet mice. The format is in vivo. As for the experimental part:
FIG. 2: NC or HFD C57/BL6 mice were gavaged daily with saline or one of three doses of Rivaroxaban (1, 2.5 or 5; n=5 per group) for 4 weeks. Histograms show fasting glycemia after 4 weeks of chronic treatment with Rivaroxaban. NC saline: control C57/BL6 mice fed with normal chow and gavaged with saline for 4 weeks. HFD saline: control C57/BL6 mice fed with high fat diet and gavaged with saline for 4 weeks. HFD+X1: C57/BL6 mice fed with high fat diet and gavaged with 1 mg/kg Rivaroxaban for 4 weeks. HFD+X2.5: C57/BL6 mice fed with high fat diet and gavaged with 2.5 mg/kg Rivaroxaban for 4 weeks. HFD+X5: C57/BL6 mice fed with high fat diet and gavaged with 5 mg/kg Rivaroxaban for 4 weeks. Data were analyzed by either one or two-way ANOVA with Tukey's multiple comparison tests and presented as mean±S.E.M. *P<0.05, **P<0.01, ***P<0.001. […]
(§1) An Oral Glucose Tolerance Test (OGTT) was performed on 6-hfasted mice. […] Glycemia was measured with a glucometer (Roche Diagnostics) from blood collected at the tail vein 30 min before the glucose […] and 15, 30, 60, 90 and 120 min after the gavage. The glucose tolerance index was calculated by adding the glycemic values from 30 to 90 min after glucose gavage divided by the corresponding duration.
(§2) After 4 weeks of treatment the inventors measured fasting glycaemia and glucose intolerance (FIGS. 7 and 8).

For data set [2], the system named is HFD C57/BL6 mice. Kind of data set: Oral glucose tolerance test (OGTT) after 4 weeks of oral treatment in high fat diet mice. The format is in vivo. As for the experimental part:
FIG. 3: NC or HFD C57/BL6 mice were gavaged daily with saline or one of three doses of Rivaroxaban (1, 2.5 or 5; n=5 per group) for 4 weeks. Graphs show oral glucose tolerance test (OGTT) (1.5 g/kg) after 4 weeks of chronic treatment with Rivaroxaban. NC-NaCl: control C57/BL6 mice fed with normal chow and gavaged with saline for 4 weeks. HFD-NaCl: control C57/BL6 mice fed with high fat diet and gavaged with saline for 4 weeks. HFD-X1 mg/kg: C57/BL6 mice fed with high fat diet and gavaged with 1 mg/kg Rivaroxaban for 4 weeks. HFD-X2.5 mg/kg: C57/BL6 mice fed with high fat diet and gavaged with 2.5 mg/kg Rivaroxaban for 4 weeks. HFD-X5 mg/kg: C57/BL6 mice fed with high fat diet and gavaged with 5 mg/kg Rivaroxaban for 4 weeks.
FIG. 4: NC or HFD C57/BL6 mice were gavaged daily with saline or one of […] of Rivaroxaban (1, 2.5 or 5; n=5 per group) for 4 weeks. Histograms show glucose intolerance corresponding index (μM/min) from 30 min to 90 min after glucose administration. NC saline: control C57/BL6 mice fed with normal chow and gavaged with saline for 4 weeks. HFD saline: control C57/BL6 mice fed with high fat diet and gavaged with saline for 4 weeks. HFD+X1: C57/BL6 mice fed with high fat diet and gavaged with 1 mg/kg Rivaroxaban for 4 weeks. HFD+X2.5: C57/BL6 mice fed with high fat diet and gavaged with 2.5 mg/kg Rivaroxaban for 4 weeks. HFD+X5: C57/BL6 mice fed with high fat diet and gavaged with 5 mg/kg Rivaroxaban for 4 weeks. Data were analyzed by either one or two-way ANOVA with Tukey's multiple comparison tests and presented as mean±S.E.M. *P<0.05, **P<0.01, ***P<0.001.
FIG. 5: NC or HFD C57/BL6 mice were gavaged daily with saline or one of […] of Rivaroxaban (1, 2.5 or 5; n=5 per group) for 4 weeks. Histograms show diabetes and glucose intolerance corresponding index (μM/min) from 30 min before to 90 min after glucose administration. NC saline: control C57/BL6 mice fed with normal chow and gavaged with saline for 4 weeks. HFD saline: control C57/BL6 mice fed with high fat diet and gavaged with saline for 4 weeks. […] Data were analyzed by either one or two-way ANOVA with Tukey's multiple comparison tests and presented as mean±S.E.M. *P<0.05, **P<0.01, ***P<0.001. […]
as §1, §2

For data set [3] the following is noted: low = typically inferior or equal to 20%, cited from earlier work.
Data set [4] concerns HFD mice. Description: Bacterial translocation: 16S rDNA copies in mesenteric adipose tissue of HFD mice. The format is in vivo. The note with it: Rivaroxaban 0.2, 0.5 and 1 mg/kg oral gavage daily, 4 weeks, vs non-treated HFD mice, FIG. 6. As for the experimental part:
To explore whether intestinal FXa inhibition regulates intestinal permeability the inventors have treated HFD mice daily during 4 weeks with 3 different doses of Rivaroxaban by oral gavage. The inventors chose low Rivaroxaban concentrations (0.2, 0.5 and 1 mg/kg) to have an intestinal effect only and avoid systemic anti-coagulation. After 4 weeks of treatment the number of 16S rDNA copies was measured in mesenteric adipose tissue in order to evaluate bacterial translocation.

For data set [5], the system named is mouse model of diabetes. The note with it: administered into a mouse model of diabetes; cited from earlier work.

Read-outs that look alike come from different tables or passages of the source.

For the molecule `COC(=O)[C@H](Cc1cccc(C(=N)N)c1)[C@@H](C)NC(=O)c1ccc(-c2cc[n+]([O-])cc2)cc1` [Otamixaban, otamixaban], the fasting glycaemia entry in data set [1] (HFD mice, Otamixaban 1 and 5 mg/kg oral gavage, FIG. 7) was “reduces fasting glycaemia”. Further, the “glucose intolerance (OGTT)” value in data set [2] (Otamixaban 1 and 5 mg/kg oral gavage, FIG. 8) is “reduces glucose intolerance”. Also, the oral bioavailability result in data set [3] is given as “low bioavailability”; in data set [3] (listed as otamixaban), “low oral bioavailability”.

For `CO[C@H]1O[C@H](COS(=O)(=O)O)[C@@H](O[C@@H]2O[C@@H](C(=O)O)[C@@H](O[C@H]3O[C@H](COS(=O)(=O)O)[C@@H](O[C@@H]4O[C@H](C(=O)O)[C@@H](O[C@H]5O[C@H](COS(=O)(=O)O)[C@@H](OC)[C@H](OC)[C@H]5NC(=O)CCCCCNC(=O)CCCC[C@@H]5SC[C@@H]6NC(=O)N[C@@H]65)[C@H](OC)[C@H]4OC)[C@H](OS(=O)(=O)O)[C@H]3OS(=O)(=O)O)[C@H](OC)[C@H]2OC)[C@H](OS(=O)(=O)O)[C@H]1OS(=O)(=O)O` [idrabiotaparinux], the oral bioavailability entry in data set [3] is on record as “low oral bioavailability”.

`O=C(NC[C@H]1CN(c2ccc(N3CCOCC3=O)cc2)C(=O)O1)c1ccc(Cl)s1` [Rivaroxaban, rivaroxaban]: the “fasting glycemia (increase induced by high fat diet)” value in data set [1] (HFD C57/BL6 mice, Rivaroxaban 1, 2.5 or 5 mg/kg oral gavage, FIG. 2) was “abolished”. Moreover, the “glucose intolerance index (30 min to 90 min after glucose administration), HFD-induced increase” value in data set [2] (5 mg/kg Rivaroxaban oral gavage, FIG. 4) is “reduced”. For the same molecule, the “diabetes and glucose intolerance index (30 min before to 90 min after glucose administration)” value in data set [2] (5 mg/kg Rivaroxaban oral gavage, vs HFD saline mice, FIG. 5) is reported as “significant reduction”. Besides, the “blood glucose concentration following oral glucose challenge (OGTT)” value in data set [2] (oral Rivaroxaban 1, 2.5 or 5 mg/kg, vs HFD mice gavaged with saline, glucose 1.5 g/kg, FIG. 3) was “reduced”. In addition, the “bacterial translocation (number of 16S rDNA copies in mesenteric adipose tissue)” value in data set [4] is given as “reduce bacterial translocation”. Further, the antithrombotic effects result in data set [5] is “displayed antithrombotic effects”.

As to `CC(=N)N1CC[C@H](Oc2ccc([C@H](Cc3ccc4ccc(C(=N)N)cc4c3)C(=O)O)cc2)C1` [DX-9065], the oral bioavailability entry in data set [3] is on record as “low oral bioavailability”.

Turning to `CO[C@H]1O[C@H](COS(=O)(=O)O)[C@@H](O[C@@H]2O[C@@H](C(=O)O)[C@@H](O[C@H]3O[C@H](COS(=O)(=O)O)[C@@H](O[C@@H]4O[C@H](C(=O)O)[C@@H](O[C@H]5O[C@H](COS(=O)(=O)O)[C@@H](OC)[C@H](OC)[C@H]5OC)[C@H](OC)[C@H]4OC)[C@H](OS(=O)(=O)O)[C@H]3OS(=O)(=O)O)[C@H](OC)[C@H]2OC)[C@H](OS(=O)(=O)O)[C@H]1OS(=O)(=O)O` [idraparinux], the oral bioavailability result in data set [3] is given as “low oral bioavailability”.

As for enoxaparin, in data set [3], the oral bioavailability entry is “low oral bioavailability”.

These data come from patent US10213434B2, “Use of factor Xa inhibitors for regulating glycemia” (VAIOMER, priority 2015, dated 2019).
